Key:
ATL cells = details: in vitro; Non Patent Literature 4; cited from earlier work
[1] = tested on: ATL cell line, ED40515 (−); experiment: Chromosome double-strand break (Giemsa chromosome specimens), ED40515 (−); type: cell-based; details: 48 hours, abacavir 10-100 μM, zidovudine 10 or 100 μM
Procedure: Abacavir was added to an ATL cell line, ED40515 (−), at a concentration of 0 μM (DMSO was added instead of abacavir), 10 μM, 25 μM, 50 μM, 75 μM or 100 μM. After the 48 hours culture, the cells were fixed by Carnoy and stained with Giemsa to prepare chromosome specimens in accordance with conventional methods. Similarly, zidovudine was added to ED40515 (−) at a concentration of 10 μM or 100 μM, and abacavir was added to a non-ATL cell line, Jurkat, at a concentration of 100 μM, and chromosome specimens were prepared. Chromosome images (100 or more images per group) were observed by an optical microscope. The cells were determined as being positive for double-strand break (DSB) when at least one chromosome break was found.

[2] = tested on: HTLV-1-infected cell line, MT2; experiment: Combination of abacavir and topoisomerase inhibitor, cellular proliferation (MTS), MT2; type: cell-based; details: 48 hours, abacavir 10 or 25 μM plus CPT-11 200-400 pM, VP16 100-500 nM or ADR 10-50 nM
Procedure: An HTLV-1-infected cell line, MT2 cell, was used. Abacavir was added at a concentration of 0 μM (DMSO was added instead of abacavir), 10 μM, or 25 μM, and to each of the samples, CPT-11 (generic name: irinotecan) was further added at a concentration of 0 pM, 200 pM, 300 pM, or 400 pM. The cells were cultured for 48 hours. Separately, abacavir was added to MT2 cells at the concentrations as described above, and VP16 (generic name: etoposide) was further added to each of the samples at a concentration of 0 nM, 100 nM, 250 nM, or 500 nM, followed by 48 hours culture. Separately, abacavir was added to MT2 cells at the concentrations as described above, and ADR (generic name: doxorubicin) was further added at a concentration of 0 nM, 10 nM, 25 nM, or 50 nM, followed by 48 hours culture. MTS assay was performed using a reagent for cellular proliferation test, Aqueous One Solution Cell Proliferation (trade name, manufactured by Promega), in the same manner as in Example 1.
The graphs (A), (B), and (c) show the results of combinations of abacavir (ABC in the graph) and CPT-11, abacavir and VP16, and abacavir and ADR, respectively. In the graphs, the vertical axis indicates the proliferation rate calculated from the cell number when the cell number at the administration of the agents was regarded as 1.

[3] = tested on: non-ATL cell line, Jurkat; experiment: PARP inhibitor combination, cellular proliferation (MTS), Jurkat; type: cell-based, human; details: olaparib 1-1000 μM, 48 hours
Procedure: (§1) To an ATL cell line, ED40515 (−), or a non-ATL cell line, Jurkat, abacavir was added at a concentration of 0 μM (DMSO, was added instead of abacavir), 10 μM, 50 μM or 100 μM, and further a PARP inhibitor, olaparib, was added at a concentration of 0 μM (DMSO was added instead of olaparib), 1 μM, 10 μM, 100 μM or 1000 μM. The cells were cultured for 48 hours. MTS assay was performed using a reagent for cellular proliferation test, Aqueous One Solution Cell Proliferation (trade name, manufactured by Promega), in the same manner as in Example 1. The cellular proliferation was represented by a ratio relative to that of the control (solvent control) on Day 0 that was regarded as 1.

[4] = tested on: ATL cell line, ED40515 (−); experiment: PARP inhibitor combination, cellular proliferation (MTS), ED40515 (−); type: cell-based; details: olaparib 1-1000 μM with abacavir 10, 50 or 100 μM, 48 hours
Procedure: as §1

Cc1cn([C@H]2C[C@H](N=[N+]=[N-])[C@@H](CO)O2)c(=O)[nH]c1=O [zidovudine]
anti-cancer effect against ATL cells (ATL cells): no anti-cancer effect
ratio of double-strand break-positive cells [1]: did not induce double-strand break

CCc1c2c(nc3ccc(OC(=O)N4CCC(N5CCCCC5)CC4)cc13)-c1cc3c(c(=O)n1C2)COC(=O)[C@]3(O)CC [CPT-11, irinotecan]
cellular proliferation (proliferation rate) in combination with abacavir [2]: significantly suppressed cellular proliferation

COc1cccc2c1C(=O)c1c(O)c3c(c(O)c1C2=O)C[C@@](O)(C(=O)CO)C[C@@H]3O[C@H]1C[C@H](N)[C@H](O)[C@H](C)O1 [ADR, doxorubicin]
cellular proliferation (proliferation rate) in combination with abacavir [2]: significantly suppressed cellular proliferation

COc1cc([C@@H]2c3cc4c(cc3[C@@H](O[C@@H]3O[C@@H]5CO[C@@H](C)O[C@H]5[C@H](O)[C@H]3O)[C@H]3COC(=O)[C@H]23)OCO4)cc(OC)c1O [VP16, etoposide]
cellular proliferation (proliferation rate) in combination with abacavir [2]: significantly suppressed cellular proliferation

O=C(c1cc(Cc2n[nH]c(=O)c3ccccc23)ccc1F)N1CCN(C(=O)C2CC2)CC1 [olaparib]
cellular proliferation [3]: did not affect cellular proliferation
effect of PARP inhibitor on suppression of cellular proliferation by abacavir [4]: enhanced the suppressive effect of abacavir

— patent US20160000796A1, “PHARMACEUTICAL COMPOSITION FOR USE IN PREVENTION OR TREATMENT OF CANCER” (priority 2013, published 2016)
